According to PMC9699193, “Activation of a Sweet Taste Receptor by Oleanane-Type Glycosides from Wisteria sinensis” (Molecules, 2022):
Read-outs that look alike come from different tables or passages of the source.

Molecular target: T1, TAS1R2/TAS1R3 sweet taste receptor (Homo sapiens, UniProt Q7RTX0+Q8TE23)
T1 construct: with TAS1R3
T1 sequence (Q8TE23 20-839): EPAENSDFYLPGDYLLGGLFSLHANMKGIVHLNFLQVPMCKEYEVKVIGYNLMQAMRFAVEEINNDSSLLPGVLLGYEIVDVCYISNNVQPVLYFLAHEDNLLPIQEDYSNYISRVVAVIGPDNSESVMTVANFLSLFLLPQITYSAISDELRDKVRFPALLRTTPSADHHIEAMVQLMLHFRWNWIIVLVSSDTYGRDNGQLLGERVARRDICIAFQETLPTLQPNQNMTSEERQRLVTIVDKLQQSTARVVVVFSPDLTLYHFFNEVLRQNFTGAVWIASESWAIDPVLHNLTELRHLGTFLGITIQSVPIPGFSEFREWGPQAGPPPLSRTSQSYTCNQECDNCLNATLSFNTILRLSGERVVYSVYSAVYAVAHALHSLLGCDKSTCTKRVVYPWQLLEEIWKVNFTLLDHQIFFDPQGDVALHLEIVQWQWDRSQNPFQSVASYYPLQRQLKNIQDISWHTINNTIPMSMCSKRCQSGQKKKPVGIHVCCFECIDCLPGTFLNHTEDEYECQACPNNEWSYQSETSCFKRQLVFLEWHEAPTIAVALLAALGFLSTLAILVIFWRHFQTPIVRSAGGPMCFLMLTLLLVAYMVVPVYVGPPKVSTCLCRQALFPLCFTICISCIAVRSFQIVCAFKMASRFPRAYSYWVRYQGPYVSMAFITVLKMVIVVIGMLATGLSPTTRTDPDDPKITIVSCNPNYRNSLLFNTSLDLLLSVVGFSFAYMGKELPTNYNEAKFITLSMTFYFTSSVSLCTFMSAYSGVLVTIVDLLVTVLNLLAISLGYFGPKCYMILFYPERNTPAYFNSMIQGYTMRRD
T1 sequence (Q7RTX0 21-852): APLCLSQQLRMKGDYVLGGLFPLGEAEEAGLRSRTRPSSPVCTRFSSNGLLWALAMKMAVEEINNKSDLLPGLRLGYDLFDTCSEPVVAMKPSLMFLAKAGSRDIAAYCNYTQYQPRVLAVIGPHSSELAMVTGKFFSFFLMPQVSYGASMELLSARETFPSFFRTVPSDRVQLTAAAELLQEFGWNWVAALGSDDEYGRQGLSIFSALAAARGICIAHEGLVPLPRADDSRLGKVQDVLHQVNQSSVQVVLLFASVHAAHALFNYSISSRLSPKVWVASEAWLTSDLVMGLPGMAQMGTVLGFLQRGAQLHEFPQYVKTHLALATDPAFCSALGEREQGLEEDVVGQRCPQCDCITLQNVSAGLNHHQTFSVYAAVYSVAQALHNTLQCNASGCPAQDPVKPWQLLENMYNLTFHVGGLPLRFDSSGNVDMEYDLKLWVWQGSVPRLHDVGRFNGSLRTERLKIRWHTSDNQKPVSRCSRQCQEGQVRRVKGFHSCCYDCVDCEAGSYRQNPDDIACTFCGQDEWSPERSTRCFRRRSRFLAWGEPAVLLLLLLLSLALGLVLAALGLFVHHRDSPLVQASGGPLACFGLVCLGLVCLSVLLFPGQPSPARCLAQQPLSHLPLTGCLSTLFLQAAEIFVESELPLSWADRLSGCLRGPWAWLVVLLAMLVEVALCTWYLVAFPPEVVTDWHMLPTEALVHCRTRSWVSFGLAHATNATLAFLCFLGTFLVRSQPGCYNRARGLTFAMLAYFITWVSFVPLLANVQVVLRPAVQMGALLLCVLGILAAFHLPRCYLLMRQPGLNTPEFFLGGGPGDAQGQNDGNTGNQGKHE
Assay: GCaMP6S calcium imaging in HEK293T-Gα[…]gust44 cells expressing TAS1R2/TAS1R3, mock-corrected
Format: cell-based

| EC50 (read-out: EC50 (converted)) | Structure (SMILES) | EC50 |
| --- | --- | --- |
| – | C[C@]1(CO)CC(=O)[C@]2(C)CC[C@]3(C)C(=CCC4[C@@]5(C)CC[C@H](OC6O[C@H](C(=O)O)[C@@H](O)[C@H](O)[C@H]6O[C@@H]6OC[C@@H](O)[C@H](O)[C@H]6O)[C@](C)(CO)C5CC[C@]43C)C2C1 (stereo partly drawn) [compound 2, 3-O-β-D-xylopyranosyl-(1→2)-β-D-glucuronopyranosylwistariasapogenol A] | 35.9 µM |
| – | C[C@@H]1O[C@@H](O[C@H]2[C@H](O[C@H]3C(O[C@H]4CC[C@@]5(C)C(CC[C@]6(C)C5CC=C5C7C[C@@](C)(CO)CC(=O)[C@]7(C)CC[C@]56C)[C@@]4(C)CO)O[C@H](C(=O)O)[C@@H](O)[C@@H]3O)OC[C@@H](O)[C@@H]2O)[C@H](O)[C@H](O)[C@H]1O (stereo partly drawn) [compound 3, 3-O-α-L-rhamnopyranosyl-(1→2)-β-D-xylopyranosyl-(1→2)-β-D-glucuronopyranosywistariasapogenol A] | 31.3 µM |
| – | CC1(C)[C@@H](O[C@H]2O[C@H](C(=O)O)[C@@H](O)[C@H](O)[C@H]2O[C@@H]2O[C@H](C(=O)O)[C@@H](O)[C@H](O)[C@H]2O)CC[C@]2(C)[C@H]3C(=O)C=C4[C@@H]5C[C@@](C)(C(=O)O)CC[C@]5(C)CC[C@@]4(C)[C@]3(C)CC[C@@H]12 [glycyrrhizin] | 41.3 µM |
| 40.2 µM | OC[C@H]1O[C@H](O[C@]2(CCl)O[C@H](CCl)[C@@H](O)[C@@H]2O)[C@H](O)[C@@H](O)[C@H]1Cl [sucralose, reference compound] | – |
